Laboratory results as given in patent US20050090559A1, “Heterocyclically-substituted pentanol derivatives, process for their production and their use as anti-inflammatory agents” (priority 2003, published 2005).

Target: T1, glucocorticoid receptor (GR) (Homo sapiens, UniProt P04150)
T1 construct: made in house; host or cells: Sf9 cells infected with recombinant baculovirus (cytosol preparation)
T1 sequence (P04150 1-777): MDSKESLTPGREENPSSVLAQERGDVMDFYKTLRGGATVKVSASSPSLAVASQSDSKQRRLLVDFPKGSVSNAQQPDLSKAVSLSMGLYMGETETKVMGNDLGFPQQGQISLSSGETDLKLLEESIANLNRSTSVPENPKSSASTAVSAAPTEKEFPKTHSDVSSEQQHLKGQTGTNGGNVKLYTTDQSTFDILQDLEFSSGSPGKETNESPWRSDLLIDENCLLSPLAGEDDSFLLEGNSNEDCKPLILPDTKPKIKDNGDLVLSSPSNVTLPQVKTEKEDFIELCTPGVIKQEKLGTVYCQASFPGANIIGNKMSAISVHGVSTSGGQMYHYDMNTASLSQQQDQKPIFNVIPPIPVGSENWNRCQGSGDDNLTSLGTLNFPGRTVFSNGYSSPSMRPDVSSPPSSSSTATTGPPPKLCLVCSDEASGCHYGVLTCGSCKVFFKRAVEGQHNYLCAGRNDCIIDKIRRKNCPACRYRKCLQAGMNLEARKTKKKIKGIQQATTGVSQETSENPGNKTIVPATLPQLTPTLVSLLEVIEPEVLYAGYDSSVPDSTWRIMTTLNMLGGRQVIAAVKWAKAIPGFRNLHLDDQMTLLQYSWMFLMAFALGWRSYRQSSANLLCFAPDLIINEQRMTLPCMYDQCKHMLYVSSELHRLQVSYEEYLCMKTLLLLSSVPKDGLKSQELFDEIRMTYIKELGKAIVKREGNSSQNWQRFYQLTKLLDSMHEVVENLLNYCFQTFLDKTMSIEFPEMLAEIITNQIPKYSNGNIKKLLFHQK
Assay: Binding to recombinantly produced glucocorticoid receptor, cytosol preparations of Sf9 cells, vs [3H]-dexamethasone
Settings: recombinant GR
From the text: The binding of the substances to the glucocorticoid receptor (GR) and other steroid hormone receptors (mineral corticoid receptor (MR), progesterone receptor (PR) and androgen receptor (AR)) is examined with the aid of recombinantly produced receptors. Cytosol preparations of Sf9 cells, which had been infected with recombinant baculoviruses, which code for the GR, are used for the binding studies. In comparison to reference substance [^3H]-dexamethasone, the substances show a high to very high affinity to GR.
Moreover, the compounds of formula (I) substituted by quinazolines, quinoxalines, cinnolines, indazoles, phthalazines, naphthyridines, benzothiazoles, dihydroindolones, dihydroisoindolones, benzimidazoles and indoles that are described here show a high selectivity for the glucocorticoid receptor.

IC50 [nM]	Compound
10	COc1cc(Cl)ccc1C(C)(C)CC(O)(CNc1ccnc2nc(C)ccc12)C(F)(F)F (centres unmarked) [Example 52, 4-(4-Chloro-2-methoxyphenyl)-4-methyl-1-(2-methyl-1,8-naphthyridin-5-ylamino)-2-(trifluoromethyl)pentan-2-ol]
1.8	COc1ccc(F)cc1C(C)(C)CC(O)(CNc1cccc2nc(C)ncc12)C(F)(F)F (centres unmarked) [Example 2, 4-(5-Fluoro-2-methoxyphenyl)-4-methyl-1-(2-methylquinazolin-5-ylamino)-2-(trifluoromethyl)-pentan-2-ol]
